This is an account of results in patent US20230391742A1, “SMALL MOLECULE COMPOUND AND USE AND COMPOSITION THEREOF” (SOOCHOW UNIVERSITY, priority 2021, published 2023).

Molecules are shown by their SMILES.

One test concerns the target T1, NAC1 protein dimer (Homo sapiens, UniProt Q96RE7).
T1 sequence (Q96RE7 1-527): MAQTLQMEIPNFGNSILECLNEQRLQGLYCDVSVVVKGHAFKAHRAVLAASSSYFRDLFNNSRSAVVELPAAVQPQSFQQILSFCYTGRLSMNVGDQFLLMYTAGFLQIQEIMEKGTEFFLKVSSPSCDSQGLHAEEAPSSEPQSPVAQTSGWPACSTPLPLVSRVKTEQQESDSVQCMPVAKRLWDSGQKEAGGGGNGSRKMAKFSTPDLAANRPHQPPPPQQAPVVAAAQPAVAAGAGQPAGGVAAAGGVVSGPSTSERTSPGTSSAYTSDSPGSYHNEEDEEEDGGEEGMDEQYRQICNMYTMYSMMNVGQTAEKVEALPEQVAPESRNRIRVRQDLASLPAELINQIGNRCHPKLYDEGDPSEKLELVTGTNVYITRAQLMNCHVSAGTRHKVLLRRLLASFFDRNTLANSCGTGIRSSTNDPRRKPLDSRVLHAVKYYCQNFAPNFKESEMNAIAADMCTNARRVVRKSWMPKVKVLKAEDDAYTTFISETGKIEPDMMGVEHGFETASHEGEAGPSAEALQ
As to the kind of experiment: Dimer formation of NAC1 protein detected by immunoprecipitation and immunoblotting. Format: biochemical. The conditions noted are these: FIG. 1. From the text:
For the selected NAI-008 (self-synthesized), the dimer formation of the target NAC1 protein by small molecule compounds was detected by immunoprecipitation technology and immunoblotting.
Background: In western blotting, separated proteins are transferred to a membrane and probed.

Test [1] has as its system SKOV3 cells. As to the kind of experiment: MTT cell growth assay in SKOV3 cells. Format: cell-based, human. As to the method:
(§1) SKOV3 cell line: purchased from ATCC, an ovarian cancer tumor cell line that positively expresses NAC1.
(§2) The culture method of SKOV3 cell line was as follows: the cells were inoculated in DMEM (InVitrogen) medium containing 10% calf serum, and placed in a CO2 incubator with a volume fraction of 5% at 37° C., cultivated for two weeks.
This embodiment used a conventional MTT method. The specific method included following:
SKOV3 cells were plated overnight in 96-well plates at a density of 3000 cells/well. […] After 48 hours, 10 μl of MTT (5 mg/ml) was added to each well, and the supernatant was discarded after incubation at 37° C. for 4 hours. After dissolving the purple crystal with 150 μl of dimethyl sulfoxide, the plates were placed in a microplate reader (Bio-Rad Company) to detect the absorbance at 570 nm.

Test [2] relates to SKOV3 cells. As to the kind of experiment: Clonal colony formation experiment in SKOV3 cells. Format: cell-based, human. The conditions noted are these: NAI-008 20 μM combined with cisplatin or doxorubicin (0-40 μM), SKOV3, FIG. 2B. As to the method: as §1, §2
In this example, conventional clonal colony formation experiments were used. The specific method included the following:
SKOV3 cells were treated according to the experimental requirements for 24-48 hours, digested with trypsin, and the cell suspension was repeatedly pipetted to make the cells fully dispersed. The percentage of single cells were above 95%, and counted on a hemocytometer. Based on a concentration of 2000 cells per dish, 2 ml of cell suspension was inoculated into the culture dish, so that the cells were evenly dispersed. Culturing in 37° C., 5% CO2 for 7 to 14 days, with fresh medium from time to time. Observation under an inverted microscope. When macroscopic colonies appeared in the petri dish, the culture was terminated, the medium was discarded, and PBS was used to rinse twice. Crystal violet staining for 20 minutes. The results were analyzed after 2-3 washes with PBS.

Test [3] relates to SKOV3 cells. The test can be described thus: Immunoblot of cleaved PARP (apoptosis) in SKOV3 cells. The test is classed as cell-based, human. The method, then: The ovarian cancer cell line SKOV3 cells were plated into 24-well plates at a density of 20,000 cells/well, and after 16-24 hours of incubation, NAI-008 was added to a final concentration of 20 μM. After 4 hours, additional cisplatin or doxorubicin was added to a final concentration of 20 μM. After 48 hours, the expression of PARP cleaved by apoptotic protein was detected by immunoblotting.

With `CC(C)(C)c1ccc(OCC(=O)NCC(=O)c2ccc(OC(=O)c3ccc4c(c3)OCO4)cc2)cc1` [NAI-008], the “formation of NAC1 protein dimer” value on NAC1 protein dimer is listed as “inhibits the formation of NAC1 protein dimer”. Also, in the test with SKOV3 cells [1] (NAI-008 alone, SKOV3, FIGS. 2A and 2B), the “toxic effects on cells, single application” value is reported as “did not cause significant toxic effects on cells”. Moreover, the “enhancement of cell growth inhibition by cisplatin and doxorubicin (MTT)” value with SKOV3 cells [1] (NAI-008 at final concentration 20 uM combined with cisplatin or doxorubicin (0-40 μM), SKOV3, 48 hours, FIG. 2A) was “significantly enhances the inhibition of cell growth and proliferation by cisplatin and doxorubicin”. In the test with SKOV3 cells [1] (second-round screening, combination with cisplatin, SKOV3), the “enhancement of inhibitory effect of cisplatin on proliferation of SKOV3 (MTT screening)” value is listed as “strongly enhances the inhibitory effect of cisplatin on the proliferation of ovarian cancer cell line SKOV3”. In addition, the “enhancement of cell proliferation inhibition by cisplatin and doxorubicin (colony formation)” value with SKOV3 cells [2] is “significantly enhances the inhibition of cell growth and proliferation by cisplatin and doxorubicin”. The “expression of apoptotic proteins (cleaved PARP) versus cisplatin or doxorubicin alone” value in the test with SKOV3 cells [3] (NAI-008 20 μM plus cisplatin or doxorubicin 20 μM, SKOV3, 48 hours, FIG. 2C) was “significantly higher”. The “apoptosis, compound alone” value with SKOV3 cells [3] (NAI-008 alone, SKOV3) is on record as “did not cause significant apoptosis”.
